Data: paper PMC6984732, “Thymidine phosphorylase and prostrate cancer cell proliferation inhibitory activities of synthetic 4-hydroxybenzohydrazides: In vitro, kinetic, and in silico studies” (PLoS ONE, 2020)
Where two headings read alike, the source gives them in different places.

Experiments:
[1] = biological target: T1, thymidine phosphorylase (TP) (Escherichia coli, UniProt P07650); test: Thymidine phosphorylase inhibition assay (spectrophotometric, 290 nm); type: biochemical, E. coli; settings: for inhibition: read-out: Percent Inhibition of thymidine phosphorylase, 10 μL of test compound (0.5 mM in dimethylsulfoxide) per well; for inhibition / inhibition at 500 µM (stock): <50% regarded inactive; for inhibition at 500 µM (stock): 10 μL of test compound (0.5 mM in dimethylsulfoxide) per well, read-out: Percent Inhibition of thymidine phosphorylase; for IC50: recombinant TP expressed in E. coli, substrate thymidine, pH 7.0, 30°C, N.A. = not active, read-out: IC50 (μM ± SEM), thymidine phosphorylase inhibition
T1 construct: purchased Sigma Aldrich, USA; host or cells: E. coli
T1 sequence (P07650 whole entry): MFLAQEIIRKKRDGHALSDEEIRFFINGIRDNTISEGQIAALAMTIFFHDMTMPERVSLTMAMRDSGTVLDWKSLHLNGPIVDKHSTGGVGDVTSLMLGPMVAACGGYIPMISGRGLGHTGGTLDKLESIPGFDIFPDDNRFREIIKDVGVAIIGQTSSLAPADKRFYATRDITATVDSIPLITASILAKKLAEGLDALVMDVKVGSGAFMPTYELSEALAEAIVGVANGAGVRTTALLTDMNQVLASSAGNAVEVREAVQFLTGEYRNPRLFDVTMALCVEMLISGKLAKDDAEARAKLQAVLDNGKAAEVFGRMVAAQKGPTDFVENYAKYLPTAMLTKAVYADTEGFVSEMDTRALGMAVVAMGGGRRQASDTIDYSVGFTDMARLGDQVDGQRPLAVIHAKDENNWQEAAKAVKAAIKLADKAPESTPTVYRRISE
Description: Since human TP is not commercially available, we used commercially available recombinant TP (expressed in E. coli) enzyme. Primary sequence of TP is mostly conserved throughout the evolution and mammalian TP share 39% sequence similarity with TP of E. coli. The mammalian enzyme also shares 65–70% similarity with the active site residues of E. coli TP enzyme.
Assay for TP inhibition was performed spectrophotometrically, following the method of Bera et al. with some modifications. Enzyme TP catalyzed the reversible phosphorolysis of thymidine to thymine and 2-deoxyribose-1-phosphate. Reaction mixture contained 150 μL of potassium phosphate buffer (pH 7.0, 50 mM), 20 μL of enzyme (0.058 U/well), and 10 μL of test compound (0.5 mM in dimethylsulfoxide). The reaction mixture was incubated for 10 min at 30°C. 20 μL of substrate (1.5 mM) was then added and change in absorbance was recorded after every minute for a total time period of 10 minutes at 290 nm in ELISA plate reader (Spectra Max-340, Molecular Devices, CA, USA).
We have used the 96-well UV-plates, purchased from Corning (Catalogue No. COSTAR 3635, Lot No. 00912050). […] We then added the substrate (thymidine), and recorded the final readings.

[2] = biological target: T1, thymidine phosphorylase (TP); test: Kinetic studies on thymidine phosphorylase (Lineweaver-Burk, secondary re-plot, Dixon plot); type: biochemical, E. coli; settings: thymidine as variable substrate; for Inhibition Type: from Lineweaver-Burk plot
Description: Kinetic studies were carried out to identify the mechanism of inhibition by these compounds. Inhibitor could bind with the enzyme in multiple ways, such as in competitive, non-competitive, mixed or uncompetitive way. In kinetic assay, the enzyme (0.058 U/200 μL) was incubated with different concentrations of inhibitor for 10 min at 30°C. The reaction was then initiated by adding different concentrations (0.1875–1.5 mM) of substrate (thymidine), and the resulting degradation of thymidine was measured continuously at 290 nm for 10 min on ELISA plate reader. Every experiment was run in triplicate.
Lineweaver-Burk plot was plotted to determine the type of inhibition. This was accomplished by plotting the reciprocal of the rate of reaction against the reciprocal of the substrate concentration. Ki values were determined by secondary re-plot of Lineweaver-Burk plot, and reconfirmed by Dixon plot.

[3] = tested on: prostate cancer (PC3) cells; test: MTT anti-proliferative assay, PC3 cells; type: cell-based; settings: Homo sapiens, PC-3, 48 h incubation, prostate cancer cell line, read-out: IC50 ± Standard Deviation, PC3 Cell Line
Description: (§1) Anti-proliferative activity of active compounds was evaluated by using the standard MTT (3-[4,5-dimethylthiazole-2-yl]-2,5-diphenyl-tetrazolium bromide) colorimetric assay in 96-well plate.
(§2) It is a colorimetric assay that measures the reduction of MTT by mitochondrial enzyme i.e. succinate dehydrogenase. The MTT enters into the mitochondria of cell, where it is reduced to an insoluble formazan salt. As reduction of MTT can only occur in metabolically active cells, the level of activity is actually a measure of the viability of the cells.
(§3) Mouse fibroblast normal cell line 3T3, and prostate cancer line (PC3) were cultured separately in DMEM, supplemented with 5% of FBS, 100 IU/mL of penicillin and 100 μg/mL of streptomycin, and kept at 37°C in 5% CO2 incubator. For the preparation of cell culture, 100 μL/well of cell solution (5 x 10^4 cells/mL) was added into 96-well plate. The plate was incubated for overnight, and fresh medium was added after the removal of old medium. The test compounds were also added in different concentrations into the plate, and again incubated for 48 h. After the completion of this incubation period, 200 μL MTT (0.5 mg/mL) was added, and plate was again incubated for 4 h, after this final incubation, 100 μL of DMSO was added to each well. The level of MTT reduction to formazan was evaluated by change in absorbance at 540 nm for 3T3, and 570 nm for PC3 using a micro-plate reader (Spectra Max plus, Molecular Devices, CA, USA).

[4] = tested on: mouse fibroblast (3T3) cells; test: MTT anti-proliferative (cytotoxicity) assay, 3T3 cells; type: cell-based; settings: mouse fibroblast normal cell line, read-out: IC50 ± Standard Deviation, 3T3 Cell Line
Description: as §1, §2, §3

| SMILES | inhibition [1] [%] | IC50 [3] [µM] | IC50 ([4]; NIH3T3, 48 h incubation) [µM] | further results |
| --- | --- | --- | --- | --- |
| O=c1[nH]c(=O)c2cc[nH]c2[nH]1 [7-Deazaxanthine, reference compound] | 99 | – | – | Inhibition Type [2]: Non-competitive |
| O=C(N/N=C/c1ccccc1O)c1ccc(O)cc1 [Compound 1, 4-Hydroxyl-N'-[(E)-(2^′-hydroxylphenyl)methylidene]benzohydrazide] | 99.6 | 7.5 ± 0.4 | 13.1 ± 0.3 | – |
| O=C(N/N=C/c1cccc(O)c1O)c1ccc(O)cc1 [Compound 2, N'-[(E)-(2^′,3^′-Dihydroxylphenyl)methylidene]-4-hydroxylbenzohydrazide] | 99.9 | 7.6 ± 0.4 | 23 ± 1 | – |
| O=C(N/N=C/c1ccc(O)c(O)c1)c1ccc(O)cc1 [Compound 3, N'-[(E)-(3^′,4^′-Dihydroxylphenyl)methylidene]-4-hydroxylbenzohydrazide] | 99.3 | > 30 | 23.5 ± 1.1 | Inhibition Type [2]: Uncompetitive |
| O=C(N/N=C/c1c(O)cc(O)cc1O)c1ccc(O)cc1 [Compound 4, 4-Hydroxyl-N'-[(E)-(2^′,4^′,6^′-trihydroxylphenyl)methylidene]benzohydrazide] | – | – | – | inhibition at 500 µM (stock) [1]: 8% |
| O=C(N/N=C/c1ccc(O)c(O)c1O)c1ccc(O)cc1 [Compound 5, 4-Hydroxyl-N'-[(E)-(2^′,3^′,4^′-trihydroxylphenyl)methylidene]benzohydrazide] | – | – | – | inhibition at 500 µM (stock) [1]: 26% |
| O=C(N/N=C/c1cccc(O)c1)c1ccc(O)cc1 [Compound 6, 4-Hydroxyl-N'-[(E)-(3^′-hydroxylphenyl)methylidene]benzohydrazide] | 99 | > 30 | > 30 | – |
| O=C(N/N=C/c1cc(O)c(O)cc1O)c1ccc(O)cc1 [Compound 7, 4-Hydroxyl-N'-[(E)-(2^′,4^′,5^′-trihydroxylphenyl)methylidene]benzohydrazide] | 99 | > 30 | 3.8 ± 0.4 | – |
| O=C(N/N=C/c1ccc(O)cc1)c1ccc(O)cc1 [Compound 8, 4-Hydroxyl-N'-[(E)-(4^′-hydroxylphenyl)methylidene]benzohydrazide] | 99 | > 30 | > 30 | – |
| O=C(NN=Cc1ccc(Cl)cc1)c1ccc(O)cc1 [Compound 9, N'-[(E)-(4^′-Chlorophenyl)methylidene]-4-hydroxylbenzohydrazide] | 99 | > 30 | > 30 | IC50 [1]: 159 ± 0.4 µM; Inhibition Type [2]: Uncompetitive; Ki ([2]; secondary re-plot of Lineweaver-Burk plot, reconfirmed by Dixon plot, read-out: Ki (μM ± SEM)): 138 ± 0.009 µM |
| COc1ccc(/C=N/NC(=O)c2ccc(O)cc2)cc1 [Compound 10, 4-Hydroxyl-N'-{(E)-[4^′-(methoxy)phenyl]methylidene}benzohydrazide] | 99.8 | > 30 | > 30 | – |
| O=C(N/N=C/c1cccc(Cl)c1)c1ccc(O)cc1 [Compound 11, N'-[(E)-(3^′-Chlorophenyl)methylidene]-4-hydroxylbenzohydrazide] | 99 | > 30 | > 30 | – |
| COc1ccccc1/C=N/NC(=O)c1ccc(O)cc1 [Compound 12, 4-Hydroxyl-N'-{(E)-[2^′-(methoxy)phenyl]methylidene}benzohydrazide] | 99 | > 30 | > 30 | – |
| COc1ccc(/C=N/NC(=O)c2ccc(O)cc2)cc1OC [Compound 13, N'-{(E)-[3^′,4^′-Bis(methoxy)phenyl]methylidene}-4-hydroxylbenzohydrazide] | 99 | > 30 | > 30 | – |
| O=C(N/N=C/c1ccc(Br)cc1)c1ccc(O)cc1 [Compound 14, N'-[(E)-(4^′-Bromophenyl)methylidene]-4-hydroxylbenzohydrazide] | 96.6 | > 30 | > 30 | Inhibition Type [2]: Uncompetitive |
| O=C(N/N=C/c1ccc(Cl)cc1Cl)c1ccc(O)cc1 [Compound 15, N'-[(E)-(2^′,4^′-Dichlorophenyl)methylidene]-4-hydroxylbenzohydrazide] | – | – | – | inhibition at 500 µM (stock) [1]: 20% |
| Cc1ccccc1/C=N/NC(=O)c1ccc(O)cc1 [Compound 16, 4-Hydroxyl-N'-[(E)-(2^′-methylphenyl)methylidene]benzohydrazide] | 99 | > 30 | > 30 | – |
| COc1cccc(/C=N/NC(=O)c2ccc(O)cc2)c1O [Compound 19, 4-Hydroxyl-N'-[(E)-(2^′-hydroxyl-3^′-methoxyphenyl)methylidene]benzohydrazide] | 86.9 | 9.6 ± 0.3 | 23.6 ± 0.2 | IC50 [1]: 181.5 ± 1.6 µM |
| O=C(N/N=C/c1cc(Br)ccc1O)c1ccc(O)cc1 [Compound 20, N'-[(E)-(5^′-Bromo-2^′-hydroxylphenyl)methylidene]-4-hydroxylbenzohydrazide] | – | – | – | inhibition at 500 µM (stock) [1]: 38.6% |
| O=C(N/N=C/c1cc(Cl)ccc1O)c1ccc(O)cc1 [Compound 21, N'-[(E)-(5^′-Chloro-2^′-hydroxylphenyl)methylidene]-4-hydroxylbenzohydrazide] | 12.4 | – | – | – |
| COc1ccc(O)c(/C=N/NC(=O)c2ccc(O)cc2)c1 [Compound 23, 4-Hydroxyl-N'-{(E)-[2^′-hydroxyl-5^′-(methoxy)phenyl]methylidene}benzo-hydrazide] | 99.9 | 10.5 ± 0.5 | 15.3 ± 0.9 | – |
| CCOc1cccc(/C=N/NC(=O)c2ccc(O)cc2)c1O [Compound 24, N'-{(E)-[3^′-Ethoxy-2^′-hydroxylphenyl]methylidene}-4-hydroxylbenzohydrazide] | 82.4 | 6.5 ± 0.2 | 9.4 ± 0.3 | – |
| C/C(=N\NC(=O)c1ccc(O)cc1)c1ccccc1O [Compound 25, 4-Hydroxyl-N'-[(E)-1-(2^′-hydroxylphenyl)ethylidene]benzohydrazide] | 25 | – | – | – |
| C/C(=N\NC(=O)c1ccc(O)cc1)c1ccc(O)cc1O [Compound 26, N'-[(E)-1-(2^′,4^′-Dihydroxylphenyl)ethylidene]-4-hydroxylbenzohydrazide] | 30 | – | – | – |
| C/C(=N\NC(=O)c1ccc(O)cc1)c1cc(O)ccc1O [Compound 28, N'-[(E)-1-(2^′,5^′-Dihydroxylphenyl)ethylidene]-4-hydroxylbenzohydrazide] | 99.3 | > 30 | 20.2 ± 0.9 | – |
| C[C@@H]1C[C@@H]([C@H](O)CC2CC(=O)NC(=O)C2)C(=O)[C@@H](C)C1 [Cyclohexamide, cyclohexamide, reference compound] | – | – | – | IC50 ([4]; 48 h incubation): 0.26 ± 0.1 µM |
| COc1cccc2c1C(=O)c1c(O)c3c(c(O)c1C2=O)C[C@@](O)(C(=O)CO)C[C@@H]3O[C@H]1C[C@H](N)[C@H](O)[C@H](C)O1 [Doxorubicin, doxorubicin, reference compound] | – | 0.91 ± 0.1 | – | – |
| N=C1CCCN1Cc1nc(O)nc(O)c1Cl [tipiracil, reference compound] | 99 | – | – | – |
